Results as given in patent publication US10646528B2, “Method for preparing extract of genus Panax including wild ginseng or ginseng, or cambial meristematic cells derived from genus panax or extract thereof containing rare ginsenosides in high quantity” (WELLKEY HOLDINGS LIMITED, priority 2014, dated 2020).

Tested on: C57BL/6J mice
Assay: oral glucose tolerance test (OGTT)
Format: in vivo
Settings: 2 g/kg D-glucose oral
Protocol: The anti-diabetic effect of the wild ginseng CMCs prepared in Example 2 was examined by an oral glucose tolerance test OGTT. Wild ginseng CMCs were heat-treated at 95° C. for 48 hours, and an extract obtained by extracting the CMCs with 70% ethanol was administered orally. C57BL/6J mice (8-week-old, male) were fasted overnight. The weights and blood glucose levels of the C57BL/6J mice were measured, and then 2 g/kg of D-glucose was administered orally to the mice. At this time, the mice were fed with drinking water, but were not fed with feed. A change in the blood glucose level was measured at […] for 2 hours.
The […] was compared with resistant maltodextrin (RMD) and a red ginseng extract (RG-200), which are known as health supplements in the anti-diabetic field.

Resistant maltodextrin [RMD] was tested, and the Blood glucose level (Time 0, 2 g/kg-treated diabetic group) was 169 mg/dL, the Blood glucose level (Time 30, 2 g/kg-treated diabetic group) was 485 mg/dL and the Blood glucose level (Time 60, 2 g/kg-treated diabetic group) was 350 mg/dL. For the same substance, the Blood glucose level (Time 120, 2 g/kg-treated diabetic group) was 282 mg/dL.
